Assay [1] deals with Escherichia coli. The experiment in a line: Inhibition of MATE-type HmrM in norfloxacin-resistant Escherichia coli KAM32 assessed as norfloxacin antibacterial activity efficacy at 30 uM measured for 18 hrs incubation by CLSI based microplate reader analysis relative to norfloxacin alone.
In assay [2] the test system is Escherichia coli. The experiment in a line: Inhibition of MATE-type HmrM in norfloxacin-resistant Escherichia coli KAM32 assessed as norfloxacin antibacterial activity by measuring norfloxacin MIC measured for 18 hrs incubation by CLSI based microplate reader analysis.
In assay [3] the test system is Escherichia coli. The assay can be described thus: Antibacterial activity against Norfloxacin sensitive Escherichia coli KAM32 harboring PBR322 assessed as reduction in bacterial growth measured for 18 hrs by CLSI based analysis. In kind it is functional.
Assay [4] deals with Escherichia coli. The experiment in a line: Antibacterial activity against Norfloxacin resistant Escherichia coli KAM32 harboring PBR322 hmrM assessed as reduction in bacterial growth measured for 18 hrs by CLSI based analysis. In kind it is functional.
Assay [5] concerns Escherichia coli. The assay can be described thus: Antibacterial activity against Norfloxacin sensitive Escherichia coli KAM32 harboring PBR322 assessed as inhibition of bacterial growth by measuring efficacy at 30 uM measured for 18 hrs by CLSI based analysis relative to control. In kind it is functional.
For assay [6], the system named is Escherichia coli. The experiment in a line: Antibacterial activity against Norfloxacin resistant Escherichia coli KAM32 harboring PBR322 assessed as inhibition of bacterial growth by measuring efficacy at 30 uM measured for 18 hrs by CLSI based analysis relative to control. In kind it is functional.
The nature of assay [7]: Inhibition of MATE-type HmrM (unknown origin). The arrangement: species or system Bacteria.
Assay [8] relates to Escherichia coli. The assay can be described thus: Antibacterial activity against Escherichia coli KAM32 harboring PBR322 hmrM assessed as effect on bacterial growth at 10 uM measured for 30 hrs by microplate reader analysis. In kind it is functional, organism-based.
Another assay deals with Bacteria. The assay can be described thus: Inhibition of MATE-type HmrM (unknown origin) at 100 uM relative to control.

The source of these data is ChEMBL document CHEMBL5523687, “Pentafluorosulfanyl-substituted biaryl derivatives as MATE-type transporter inhibitors targeting drug-resistant bacteria” (Bioorg Med Chem, 2024).

Converted amounts (≈) assume the structure as drawn. The source made the active and inactive calls. No cut-off for these calls is given here.

Consider `CN/C(=N\C#N)NCCCCCc1cccc(NS(C)(=O)=O)c1`, for which the Efficacy with Escherichia coli [1] amounted to 38%. The MIC in the assay with Escherichia coli [2] came to 0.04 µg/mL (≈ 0.119 µM).
For `CN/C(=N\C#N)NCCC[C@H]1C[C@@H]1c1cccc(Cl)c1` the same measures were 57% and 0.032 µg/mL (≈ 0.11 µM).
The corresponding values for `CN/C(=N\C#N)NCCCCCc1cccc(C)c1` are 57% and 0.032 µg/mL (≈ 0.124 µM).
For `Clc1cccc(CCCCCn2ccnc2)c1` the same measures were 38% and 0.04 µg/mL (≈ 0.161 µM).
In the case of `CCn1cc(C(=O)O)c(=O)c2cc(F)c(N3CCNCC3)cc21` [NORFLOXACIN], the MIC in the assay with Escherichia coli [3] was found to be 0.014 µg/mL (≈ 0.0438 µM); in the assay with Escherichia coli [4], 0.056 µg/mL (≈ 0.175 µM). Also, the Efficacy with Escherichia coli [5] is given as 100%; in the assay with Escherichia coli [6] it was 0%.
For the compound `CN/C(=N\C#N)NCCCCCc1cccc(S(C)(=O)=O)c1`, in the assay on Escherichia coli [1], the Efficacy was 38%. Moreover, the MIC in the assay on Escherichia coli [2] was found to be 0.04 µg/mL (≈ 0.124 µM).
For `CN/C(=N\C#N)NCc1cccc(-c2cccc(Cl)c2)c1` the same measures were 38% and 0.04 µg/mL (≈ 0.134 µM).
As usually defined, the EC50 is the concentration needed to bring the measured effect to its halfway point. With `CN(C)/C(=N\C#N)N(C)CCCC#Cc1cccc(S(F)(F)(F)(F)F)c1`, in the assay with Escherichia coli [1], the Efficacy was determined as 100%. In the assay on Escherichia coli [2], the MIC is 0.014 µg/mL (≈ 0.0355 µM). Besides, the midpoint of the response in [7], the EC50, lay at 6.8 µM.
With `C#Cc1cccc(CCCCCN/C(=N/C#N)NC)c1`, the Efficacy in the assay with Escherichia coli [1] is 57%. Besides, the MIC with Escherichia coli [2] worked out at 0.04 µg/mL (≈ 0.149 µM).
For `CN/C(=N\C#N)NCCC/C=C\c1cccc(Cl)c1` the same measures were 71% and 0.026 µg/mL (≈ 0.0939 µM).
With `CN/C(=N\C#N)NCCC[C@@H]1C[C@@H]1c1cccc(Cl)c1`, the Efficacy in the assay on Escherichia coli [1] was determined as 57%. In addition, the MIC in the assay on Escherichia coli [2] was found to be 0.032 µg/mL (≈ 0.11 µM).
Consider `CN(C)/C(=N\C#N)N(C)CCCCCc1cccc(Cl)c1`, for which the Efficacy in the assay with Escherichia coli [1] came out at 71%. The MIC with Escherichia coli [2] is 0.026 µg/mL (≈ 0.0847 µM).
For the compound `CN(C)/C(=N\C#N)N(C)Cc1ccc(-c2cccc(S(F)(F)(F)(F)F)c2)cc1`, in the assay on Escherichia coli [1], the Efficacy is 100%. In the assay on Escherichia coli [2], the MIC worked out at 0.014 µg/mL (≈ 0.0335 µM). The compound further returned an EC50 in assay [7] of 1.8 µM. In addition, in the assay on Escherichia coli [8], the result was inactive.
As to `Clc1cccc(CCCCCN2CCOCC2)c1`, the Efficacy in the assay on Escherichia coli [1] amounted to 0%. Also, the MIC in the assay with Escherichia coli [2] turned out to be 0.056 µg/mL (≈ 0.209 µM).
The corresponding values for `OCCCCCc1cccc(Cl)c1` are 0% and 0.056 µg/mL (≈ 0.282 µM).
On to `CN/C(=N\C#N)NCCCCc1cccc(Cl)c1`, for which, in the assay on Escherichia coli [1], the Efficacy stood at 38%. Further, the MIC with Escherichia coli [2] was determined as 0.04 µg/mL (≈ 0.151 µM).
As for `CN/C(=N/C#N)NCC#CC#Cc1cccc(Cl)c1`, the Efficacy in the assay with Escherichia coli [1] stood at 0%. The MIC in the assay on Escherichia coli [2] was found to be 0.056 µg/mL (≈ 0.207 µM).
Take `CN/C(=N\C#N)NCCCC#Cc1cccc(S(F)(F)(F)(F)F)c1`: in the assay with Escherichia coli [1], the Efficacy stood at 100%. Further, the MIC with Escherichia coli [2] stood at 0.02 µg/mL (≈ 0.0546 µM).
For `CN/C(=N/C#N)NCc1ccc(-c2cccc(Cl)c2)cc1` the same measures were 100% and 0.014 µg/mL (≈ 0.0469 µM).
Consider `COCCCCCc1cccc(Cl)c1`, for which the Efficacy in the assay with Escherichia coli [1] came out at 0%. Further, the MIC with Escherichia coli [2] is 0.056 µg/mL (≈ 0.263 µM).
For `CN/C(=N\C#N)NCCCCCc1cccc(Cl)c1` the same measures were 57% and 0.032 µg/mL (≈ 0.115 µM).
Turning to `CN/C(=N\C#N)NCc1ccccc1-c1cccc(Cl)c1`, in the assay on Escherichia coli [1], the Efficacy stood at 38%. The MIC in the assay with Escherichia coli [2] came out at 0.04 µg/mL (≈ 0.134 µM).
`CN/C(=N\C#N)NCCCCCc1cccc(F)c1`: the values for the Efficacy with Escherichia coli [1] and with Bacteria were 38% and 92%, respectively. The MIC with Escherichia coli [2] was determined as 0.04 µg/mL (≈ 0.152 µM). The EC50 in assay [7] is above 30 µM.
For the compound `CN/C(=N\C#N)NCCC/C=C/c1cccc(Cl)c1`, in the assay with Escherichia coli [1], the Efficacy is 71%. Also, in the assay with Escherichia coli [2], the MIC came out at 0.026 µg/mL (≈ 0.0939 µM).
On to `CN(C)/C(=N\C#N)N(C)CCCC#Cc1cccc(Cl)c1`, for which, in the assay with Escherichia coli [1], the Efficacy is 100%. In the assay on Escherichia coli [2], the MIC worked out at 0.014 µg/mL (≈ 0.0462 µM). Besides, in assay [7], it took 6.8 µM to reach a half-maximal effect (EC50).
For `CN(C)/C(=N\C#N)N(C)Cc1ccc(-c2cccc(Cl)c2)cc1` the same measures were 100%, 0.014 µg/mL (≈ 0.0428 µM) and 4 µM.
For the compound `CN/C(=N\C#N)NCCCNC(=O)c1cccc(Cl)c1`, the Efficacy with Escherichia coli [1] came out at 0%. Also, the MIC in the assay on Escherichia coli [2] was found to be 0.056 µg/mL (≈ 0.191 µM).
The corresponding values for `CN/C(=N\C#N)NCCCCCc1cccc(S(F)(F)(F)(F)F)c1` are 71% and 0.026 µg/mL (≈ 0.0702 µM).
The corresponding values for `CN/C(=N\C#N)NCCCCCc1cccc(Br)c1` are 19% and 0.048 µg/mL (≈ 0.148 µM).
`CN/C(=N\C#N)NCCCCCc1cccc(I)c1`: in the assay on Escherichia coli [1], the Efficacy worked out at 0%. Further, the MIC with Escherichia coli [2] worked out at 0.056 µg/mL (≈ 0.151 µM).
`CN/C(=N\C#N)NCCCCCc1cccc(C#N)c1`: the Efficacy with Escherichia coli [1] was found to be 57%. In addition, in the assay with Escherichia coli [2], the MIC stood at 0.032 µg/mL (≈ 0.119 µM).
For `CN/C(=N\C#N)NCCCC#Cc1cccc(Cl)c1` the same measures were 71% and 0.026 µg/mL (≈ 0.0946 µM).
